Results from PubChem BioAssay AID328 (DTP/NCI, 2004).
Values joined by “and” are separate entries in the source; they are usually repeats but may differ in a detail not shown here. Equal values may be shown once. Toxic doses and inconclusive results are not listed. How the source made its calls: active means survival T/C of 150% or more; inactive means T/C below 125% in these data. Non-standard residues stand in square brackets, D forms with d. Residues, ends and D or L forms follow the SMILES beside them. ξ: configuration not given here. *: point of attachment. Trt = c1ccc(C(c2ccccc2)(c2ccccc2)*)cc1; Nphe = O=C(O)CNCc1ccccc1; ξF = NC(Cc1ccccc1)C(=O)O; Ms = CS(=O)(=O)*

System: BDF1 mice, P388 leukemia ip, median survival T/C
Assay: NCI In Vivo Anticancer Drug Screen. Data for tumor model P388 Leukemia (intraperitoneal) in B6D2F1 (BDF1) mice
Conditions: endpoint: median survival time, higher = longer survival
Procedure, shortened: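 Antitumour effect was judged in vivo: survival in drug-treated mice, normalised to that of vehicle-dosed controls, gives the reported T/C.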

[1] = dose: 100.0 mg/kg/injection, schedule: Q01DX009 (ip), vehicle: saline
[2] = dose: 200.0 mg/kg/injection, schedule: Q01DX009 (ip), vehicle: saline
[3] = dose: 400.0 mg/kg/injection, schedule: Q01DX009 (ip), vehicle: saline
[4] = dose: 400.0 mg/kg/injection, schedule: Q04DX003 (ip), vehicle: saline
[5] = dose: 50.0 mg/kg/injection, schedule: Q04DX003 (ip), vehicle: saline with Tween-80
[6] = dose: 100.0 mg/kg/injection, schedule: Q04DX003 (ip), vehicle: saline with Tween-80
[7] = dose: 200.0 mg/kg/injection, schedule: Q01DX009 (ip), vehicle: saline with Tween-80
[8] = dose: 200.0 mg/kg/injection, schedule: Q04DX003 (ip), vehicle: saline with Tween-80
[9] = dose: 400.0 mg/kg/injection, schedule: Q01DX009 (ip), vehicle: saline with Tween-80
[10] = dose: 25.0 mg/kg/injection, schedule: Q01DX009 (ip), vehicle: other
[11] = dose: 25.0 mg/kg/injection, schedule: Q04DX003 (ip), vehicle: other
[12] = dose: 50.0 mg/kg/injection, schedule: Q04DX003 (ip), vehicle: other
[13] = dose: 100.0 mg/kg/injection, schedule: Q04DX003 (ip), vehicle: alcohol
[14] = dose: 200.0 mg/kg/injection, schedule: Q04DX003 (ip), vehicle: alcohol
[15] = dose: 100.0 mg/kg/injection, schedule: Q01DX009 (ip), vehicle: Klucel (hydroxypropylcellulose) (HPC)
[16] = dose: 200.0 mg/kg/injection, schedule: Q01DX009 (ip), vehicle: Klucel (hydroxypropylcellulose) (HPC)
[17] = dose: 400.0 mg/kg/injection, schedule: Q01DX009 (ip), vehicle: Klucel (hydroxypropylcellulose) (HPC)
[18] = dose: 50.0 mg/kg/injection, schedule: Q01DX009 (ip), vehicle: saline

Measured: T/C

COC(=O)C(N)CSC (centres undefined)
inactive: [1] 103 % of control | dose: 100.0 mg/kg/injection, schedule: Q04DX003 (ip), vehicle: saline 113 % of control | [2] 106 % of control | dose: 200.0 mg/kg/injection, schedule: Q04DX003 (ip), vehicle: saline 90 % of control | [3] 106 % of control | [4] 104 % of control

C#CCCC#C
inactive: [5] 100 % of control | dose: 67.0 mg/kg/injection, schedule: Q01DX005 (ip), vehicle: saline with Tween-80 96 % of control | dose: 100.0 mg/kg/injection, schedule: Q01DX005 (ip), vehicle: saline with Tween-80 115 % of control | [6] 104 % of control | dose: 150.0 mg/kg/injection, schedule: Q01DX005 (ip), vehicle: saline with Tween-80 92 % of control | [7] 103 % of control | [8] 108 % of control | [9] 111 % of control

CO[C@@H]([CH2][Hg][S]C#N)[C@@H]([CH2][Hg][S]C#N)OC
inactive: dose: 6.25 mg/kg/injection, schedule: Q01DX009 (ip), vehicle: other 110 % of control | dose: 12.5 mg/kg/injection, schedule: Q01DX009 (ip), vehicle: other 120 % of control | [10] 100 % of control and 109 % of control | [11] 100 % of control | [12] 103 % of control | dose: 100.0 mg/kg/injection, schedule: Q04DX003 (ip), vehicle: saline sonified 90 % of control

CC(NC(=O)OCc1ccccc1)C(=O)NCCN(C)C (centres undefined)
inactive: dose: 50.0 mg/kg/injection, schedule: Q01DX005 (ip), vehicle: saline 100 % of control | dose: 100.0 mg/kg/injection, schedule: Q01DX005 (ip), vehicle: saline 91 % of control | dose: 200.0 mg/kg/injection, schedule: Q01DX005 (ip), vehicle: saline 100 % of control

C[C@@H]1C[C@@]2(C)[C@@H](CC[C@@H]3[C@@H]2CC[C@]2(C)OC(=O)CC[C@@H]32)CC1=O
inactive: [13] 105 % of control | [14] 95 % of control | dose: 264.0 mg/kg/injection, schedule: Q04DX003 (ip), vehicle: saline 95 % of control and 110 % of control | [4] 105 % of control

Cn1ncc2cncnc21
inactive: [13] 113 % of control | [14] 95 % of control | dose: 400.0 mg/kg/injection, schedule: Q04DX003 (ip), vehicle: alcohol 100 % of control

CC1CCC2C(C)C(=O)OC2C2(C)C(=O)C=CC12 (centres undefined)
inactive: dose: 6.4 mg/kg/injection, schedule: Q01DX009 (ip), vehicle: alcohol 106 % of control | dose: 9.6 mg/kg/injection, schedule: Q01DX009 (ip), vehicle: alcohol 100 % of control | dose: 14.0 mg/kg/injection, schedule: Q01DX009 (ip), vehicle: alcohol 122 % of control | dose: 22.0 mg/kg/injection, schedule: Q01DX009 (ip), vehicle: alcohol 108 % of control

CC(C)(C)C1C2N1C1(c3ccccc3)OC2(c2ccccc2)c2ccccc21 (centres undefined)
inactive: dose: 50.0 mg/kg/injection, schedule: Q01DX009 (ip), vehicle: Klucel (hydroxypropylcellulose) (HPC) 106 % of control | [15] 100 % of control | [16] 104 % of control

CC(=O)Nc1ccc(S(=O)(=O)F)cc1
inactive: [5] 87 % of control | [6] 104 % of control | [8] 100 % of control

CC(=O)Nc1ccccc1F
inactive: [15] 100 % of control | dose: 100.0 mg/kg/injection, schedule: Q04DX003 (ip), vehicle: Klucel (hydroxypropylcellulose) (HPC) 87 % of control | [16] 91 % of control | dose: 200.0 mg/kg/injection, schedule: Q04DX003 (ip), vehicle: Klucel (hydroxypropylcellulose) (HPC) 104 % of control | [17] 100 % of control

Cc1ccnc(NC2=CC(=O)C(=O)c3ccccc32)c1
inactive: [18] 100 % of control | dose: 75.0 mg/kg/injection, schedule: Q01DX009 (ip), vehicle: saline 118 % of control | dose: 112.5 mg/kg/injection, schedule: Q01DX009 (ip), vehicle: saline 118 % of control

COC(=O)C(NC(=O)C(N)CSC(c1ccccc1)(c1ccccc1)c1ccccc1)C(C)C (centres undefined) (H-Cys(Trt)-Val-OMe; configuration not given here)
inactive: dose: 50.0 mg/kg/injection, schedule: Q01DX009 (sc), vehicle: olive oil, sesame oil, peanut oil 117 % of control | dose: 50.0 mg/kg/injection, schedule: Q04DX003 (sc), vehicle: olive oil, sesame oil, peanut oil 90 % of control | dose: 100.0 mg/kg/injection, schedule: Q01DX009 (sc), vehicle: olive oil, sesame oil, peanut oil 104 % of control | dose: 100.0 mg/kg/injection, schedule: Q04DX003 (sc), vehicle: olive oil, sesame oil, peanut oil 90 % of control | dose: 200.0 mg/kg/injection, schedule: Q01DX009 (sc), vehicle: olive oil, sesame oil, peanut oil 104 % of control | dose: 200.0 mg/kg/injection, schedule: Q04DX003 (sc), vehicle: olive oil, sesame oil, peanut oil 100 % of control

CC1C(N2CCOCC2)CS1(=O)=O (centres undefined)
inactive: [15] 100 % of control | [16] 115 % of control | [17] 105 % of control

CS(=O)(=O)N(CC(=O)NC(Cc1ccccc1)C(=O)O)Cc1ccccc1 (centres undefined) (Ms-[Nphe]-[ξF]-OH)
inactive: dose: 12.5 mg/kg/injection, schedule: Q04DX003 (ip), vehicle: sodium bicarbonate 100 % of control | [10] 114 % of control | [11] 94 % of control | dose: 25.0 mg/kg/injection, schedule: Q04DX003 (ip), vehicle: sodium bicarbonate 106 % of control | dose: 50.0 mg/kg/injection, schedule: Q01DX009 (ip), vehicle: other 100 % of control | [12] 103 % of control | dose: 50.0 mg/kg/injection, schedule: Q04DX003 (ip), vehicle: sodium bicarbonate 104 % of control | dose: 100.0 mg/kg/injection, schedule: Q01DX009 (ip), vehicle: other 114 % of control | dose: 100.0 mg/kg/injection, schedule: Q04DX003 (ip), vehicle: other 106 % of control | dose: 100.0 mg/kg/injection, schedule: Q04DX003 (ip), vehicle: sodium bicarbonate 96 % of control | dose: 200.0 mg/kg/injection, schedule: Q04DX003 (ip), vehicle: other 104 % of control | dose: 200.0 mg/kg/injection, schedule: Q04DX003 (ip), vehicle: sodium bicarbonate 98 % of control | dose: 400.0 mg/kg/injection, schedule: Q04DX003 (ip), vehicle: other 103 % of control | dose: 400.0 mg/kg/injection, schedule: Q04DX003 (ip), vehicle: sodium bicarbonate 90 % of control

CC(=O)OCC(=O)[C@@]1(O)CC[C@H]2[C@@H]3C[C@H](C)C4=CC(=O)CC[C@]4(C)[C@H]3[C@@H](O)C[C@@]21C
inactive: [9] 90 % of control

CC1OC(OC2C(O)C(O)C(O)C(O)C2O)C(N)CC1N=C(N)C(=O)O (centres undefined)
inactive: [1] 91 % of control | [2] 100 % of control | [3] 116 % of control

Cc1nc(CN(C)C)c2cnccn12
inactive: dose: 6.25 mg/kg/injection, schedule: Q01DX009 (ip), vehicle: saline 95 % of control | dose: 12.5 mg/kg/injection, schedule: Q01DX009 (ip), vehicle: saline 104 % of control | dose: 25.0 mg/kg/injection, schedule: Q01DX009 (ip), vehicle: saline 100 % of control

COC1/C=C/OC2(C)Oc3c(C)c(O)c4c(O)c(c(/C=N/NC5CCCCCCCCCCCCCC5)c(O)c4c3C2=O)NC(=O)/C(C)=C\C=C\C(C)C(O)C(C)C(O)C(C)C(OC(C)=O)C1C (centres undefined)
inactive: dose: 100.0 mg/kg/injection, schedule: Q01DX009 (ip), vehicle: saline with Tween-80 100 % of control | [6] 100 % of control | [7] 95 % of control | [8] 90 % of control | [9] 95 % of control | dose: 400.0 mg/kg/injection, schedule: Q04DX003 (ip), vehicle: saline with Tween-80 90 % of control

NC(CC1=CCC=CC1)C(=O)O (centres undefined)
inactive: [18] 96 % of control and 113 % of control | [1] 117 % of control

C1CC[N-]CC1.C1CC[N-]CC1.C1CC[N-]CC1.C1CC[N-]CC1.[Cl][Co][Cl]
inactive: dose: 25.0 mg/kg/injection, schedule: Q01DX009 (ip), vehicle: saline with Tween-80 118 % of control | dose: 33.0 mg/kg/injection, schedule: Q01DX009 (ip), vehicle: saline with Tween-80 100 % of control | dose: 75.0 mg/kg/injection, schedule: Q01DX009 (ip), vehicle: saline with Tween-80 120 % of control
